Data: the NIST ThermoML archive (doi:10.1016/j.jct.2019.02.025)

Columns and labels:
[1] = refractive index (Na D-line) (dimensionless); settings: 101.33 kPa, Liquid, Standard Abbe refractometry
[2] = for mass density / kinematic viscosity: 101.33 kPa, Liquid; for mass density: Vibrating tube method; for surface tension liquid-gas / kinematic viscosity: Surface laser light scattering (SLLS)

CCCCCCCCCCCC(=O)OC [methyl dodecanoate]
Settings	kinematic viscosity [m2/s]	mass density [kg/m3]	refractive index	surface tension liquid-gas [mN/m]
[1], 278.15 K	–	–	1.43836	–
[1], 283.15 K	–	–	1.43629	–
[1], 288.15 K	–	–	1.43422	–
[1], 293.15 K	–	–	1.43216	–
[1], 298.15 K	–	–	1.43009	–
[1], 303.15 K	–	–	1.42802	–
[1], 308.15 K	–	–	1.42594	–
[1], 313.15 K	–	–	1.42383	–
[1], 318.15 K	–	–	1.42171	–
[1], 323.15 K	–	–	1.41959	–
[1], 328.15 K	–	–	1.4175	–
[1], 333.15 K	–	–	1.41542	–
[1], 338.15 K	–	–	1.41334	–
[1], 343.15 K	–	–	1.41127	–
[1], 348.15 K	–	–	1.40922	–
[1], 353.15 K	–	–	1.40717	–
[1], 358.15 K	–	–	1.40513	–
[2], 293.15 K	–	869.26	–	–
[2], 298.14 K	2.81e-06	–	–	23.49
[2], 303.15 K	–	861.25	–	–
[2], 313.15 K	–	853.32	–	–
[2], 323.15 K	–	845.42	–	–
[2], 323.16 K	1.9e-06	–	–	22.02
[2], 333.15 K	–	837.53	–	–
[2], 343.15 K	–	829.63	–	–
[2], 348.15 K	1.44e-06	–	–	21.12
[2], 353.15 K	–	820.84	–	–
[2], 363.15 K	–	813.94	–	–
[2], 373.15 K	–	806.11	–	–
[2], 373.17 K	1.14e-06	–	–	19.82
[2], 383.15 K	–	798.22	–	–
[2], 393.15 K	–	790.34	–	–
[2], 398.27 K	9.1e-07	–	–	18.66
[2], 403.15 K	–	782.4	–	–
[2], 413.15 K	–	774.39	–	–
[2], 423.15 K	–	766.34	–	–
[2], 423.25 K	7.36e-07	–	–	17.48
[2], 433.15 K	–	758.26	–	–
[2], 443.15 K	–	750.06	–	–
[2], 448.25 K	5.99e-07	–	–	15.99
[2], 453.15 K	–	741.94	–	–

CCCCCCC(=O)OCC [ethyl heptanoate]
Settings	kinematic viscosity [m2/s]	mass density [kg/m3]	refractive index	surface tension liquid-gas [mN/m]
[1], 278.15 K	–	–	1.42006	–
[1], 283.15 K	–	–	1.41784	–
[1], 288.15 K	–	–	1.41562	–
[1], 293.15 K	–	–	1.41341	–
[1], 298.15 K	–	–	1.41119	–
[1], 303.15 K	–	–	1.40896	–
[1], 308.15 K	–	–	1.40673	–
[1], 313.15 K	–	–	1.40445	–
[1], 318.15 K	–	–	1.40216	–
[1], 323.15 K	–	–	1.39988	–
[1], 328.15 K	–	–	1.39761	–
[1], 333.15 K	–	–	1.39535	–
[1], 338.15 K	–	–	1.39311	–
[1], 343.15 K	–	–	1.39088	–
[1], 348.15 K	–	–	1.38866	–
[1], 353.15 K	–	–	1.38645	–
[1], 358.15 K	–	–	1.38421	–
[2], 293.15 K	–	869.42	–	–
[2], 298.25 K	1.33e-06	–	–	24.88
[2], 303.15 K	–	860.36	–	–
[2], 313.15 K	–	851.32	–	–
[2], 323.03 K	9.55e-07	–	–	23.07
[2], 323.15 K	–	842.26	–	–
[2], 333.15 K	–	833.07	–	–
[2], 343.15 K	–	824.1	–	–
[2], 347.8 K	7.3e-07	–	–	20.71
[2], 353.15 K	–	814.99	–	–
[2], 363.15 K	–	805.81	–	–
[2], 372.91 K	5.73e-07	–	–	18.61
[2], 373.15 K	–	796.55	–	–
[2], 383.15 K	–	787.24	–	–
[2], 393.15 K	–	777.81	–	–
[2], 397.51 K	4.7e-07	–	–	16.27
[2], 403.15 K	–	768.3	–	–
[2], 413.15 K	–	758.65	–	–
[2], 421.88 K	3.95e-07	–	–	14.43
[2], 423.15 K	–	748.89	–	–
[2], 433.15 K	–	738.95	–	–
[2], 443.15 K	–	728.84	–	–
[2], 448 K	3.39e-07	–	–	12.31
